IC50 and Ki data for two compounds are collected here from ChEMBL document CHEMBL1909046, “DrugMatrix in vitro pharmacology data”.

Chain of Mu-type opioid receptor (P35372 whole entry): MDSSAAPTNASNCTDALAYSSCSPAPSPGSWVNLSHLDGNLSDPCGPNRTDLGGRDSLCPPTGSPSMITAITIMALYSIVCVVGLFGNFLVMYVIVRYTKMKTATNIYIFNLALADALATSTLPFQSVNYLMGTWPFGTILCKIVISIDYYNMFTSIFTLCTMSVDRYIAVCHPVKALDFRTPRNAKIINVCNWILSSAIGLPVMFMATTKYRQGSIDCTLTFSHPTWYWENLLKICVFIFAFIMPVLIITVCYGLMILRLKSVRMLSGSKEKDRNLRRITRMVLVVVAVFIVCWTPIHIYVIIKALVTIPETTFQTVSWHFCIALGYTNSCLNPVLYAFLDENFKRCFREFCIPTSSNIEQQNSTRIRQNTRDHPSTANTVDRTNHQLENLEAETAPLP

The first test deals with Beta-1 adrenergic receptor (Homo sapiens, UniProt P08588). The test can be described thus: DRUGMATRIX: Adrenergic beta1 radioligand binding (ligand: [125I] Cyanopindolol). In kind it is cell membranes, CHO-K1, Membrane. The settings on record: cho-k1; Not Active = under 50% inhibition at 10 µM.
Chain of Beta-1 adrenergic receptor (P08588 whole entry): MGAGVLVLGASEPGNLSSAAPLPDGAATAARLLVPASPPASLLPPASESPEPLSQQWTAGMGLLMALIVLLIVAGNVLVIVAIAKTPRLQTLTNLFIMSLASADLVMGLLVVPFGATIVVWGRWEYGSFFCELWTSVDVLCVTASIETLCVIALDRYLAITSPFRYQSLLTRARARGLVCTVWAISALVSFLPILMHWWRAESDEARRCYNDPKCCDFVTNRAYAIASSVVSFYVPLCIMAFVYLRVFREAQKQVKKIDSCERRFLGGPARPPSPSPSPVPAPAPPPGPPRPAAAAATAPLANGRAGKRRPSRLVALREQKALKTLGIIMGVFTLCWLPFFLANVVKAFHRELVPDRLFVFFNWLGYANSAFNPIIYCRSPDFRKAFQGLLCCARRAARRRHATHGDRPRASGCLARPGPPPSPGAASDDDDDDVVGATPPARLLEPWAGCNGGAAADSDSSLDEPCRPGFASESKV
Broadly, the IC50 is the concentration needed to halve the response being measured. On to `CCc1ccc(C(=O)C(C)CN2CCCCC2)cc1` (stereo not given) [EPERISONE], for which the IC50 entry is “Not Active”.
As for `C/C=C1\[C@H]2C=C(C)C[C@]1(N)c1ccc(=O)[nH]c1C2` [HUPERZINE A], the IC50 entry is given as “Not Active”.

Test system in the next test: not listed separately
The test can be described thus: DRUGMATRIX: beta-Lactamase enzyme inhibition (substrate: Nitrocefin). The settings on record: Not Active = under 50% inhibition at 10 µM. Also noted: species or system Bacillus cereus.
The term Ki denotes a measure of affinity in units of concentration, obtained from inhibition or displacement. Take `CCc1ccc(C(=O)C(C)CN2CCCCC2)cc1` (stereo not given) [EPERISONE]: the IC50 result is on record as “Not Active” and the Ki entry is given as “Not Active”.
With `C/C=C1\[C@H]2C=C(C)C[C@]1(N)c1ccc(=O)[nH]c1C2` [HUPERZINE A], the IC50 entry was “Not Active” and the inhibition constant (Ki) entry is recorded as “Not Active”.

Another test deals with T1, 5-hydroxytryptamine receptor 2C (Homo sapiens, UniProt P28335).
T1 sequence (P28335 whole entry): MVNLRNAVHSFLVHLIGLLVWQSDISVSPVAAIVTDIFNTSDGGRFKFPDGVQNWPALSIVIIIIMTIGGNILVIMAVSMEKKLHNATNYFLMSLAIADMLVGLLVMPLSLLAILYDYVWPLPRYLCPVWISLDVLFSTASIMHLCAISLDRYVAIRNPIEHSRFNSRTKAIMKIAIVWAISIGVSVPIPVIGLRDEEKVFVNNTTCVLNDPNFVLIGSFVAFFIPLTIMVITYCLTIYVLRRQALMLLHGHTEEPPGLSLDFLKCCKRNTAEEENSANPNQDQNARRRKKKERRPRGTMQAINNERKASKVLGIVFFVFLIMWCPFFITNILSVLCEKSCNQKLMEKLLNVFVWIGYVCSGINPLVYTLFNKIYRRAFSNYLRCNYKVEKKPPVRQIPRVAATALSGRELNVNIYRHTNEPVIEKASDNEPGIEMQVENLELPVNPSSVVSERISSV
Nature of the test: DRUGMATRIX: Serotonin (5-Hydroxytryptamine) 5-HT2C radioligand binding (ligand: [3H] Mesulergine). The settings on record: cho-k1; Not Active = under 50% inhibition at 10 µM. It counts as cell membranes, CHO-K1, Membrane.
For the compound `CCc1ccc(C(=O)C(C)CN2CCCCC2)cc1` (stereo not given) [EPERISONE], the IC50 result is reported as “Not Active”.
For `C/C=C1\[C@H]2C=C(C)C[C@]1(N)c1ccc(=O)[nH]c1C2` [HUPERZINE A], the IC50 result is listed as “Not Active”.

Test system in a further test: not listed separately
Nature of the test: DRUGMATRIX: Sigma2 radioligand binding (ligand: [3H] Ifenprodil). The settings on record: Not Active = under 50% inhibition at 10 µM. It counts as cell membranes, Rattus norvegicus, Wistar, Brain, Membrane.
Take `C/C=C1\[C@H]2C=C(C)C[C@]1(N)c1ccc(=O)[nH]c1C2` [HUPERZINE A]: the IC50 entry is reported as “Not Active” and the inhibitory constant (Ki) entry is “Not Active”.

Staying with this test, now noted: Not Active = under 50% inhibition at 10 µM; read-out: IC50.
On to `CCc1ccc(C(=O)C(C)CN2CCCCC2)cc1` (stereo not given) [EPERISONE], for which the IC50 came out at 1060 nM.

Staying with this test, now noted: Not Active = under 50% inhibition at 10 µM; read-out: Ki.
Regarding `CCc1ccc(C(=O)C(C)CN2CCCCC2)cc1` (stereo not given) [EPERISONE], the Ki is 655 nM.

The next test concerns the target T2, D(4) dopamine receptor (Homo sapiens, UniProt P21917).
T2 sequence (P21917 whole entry): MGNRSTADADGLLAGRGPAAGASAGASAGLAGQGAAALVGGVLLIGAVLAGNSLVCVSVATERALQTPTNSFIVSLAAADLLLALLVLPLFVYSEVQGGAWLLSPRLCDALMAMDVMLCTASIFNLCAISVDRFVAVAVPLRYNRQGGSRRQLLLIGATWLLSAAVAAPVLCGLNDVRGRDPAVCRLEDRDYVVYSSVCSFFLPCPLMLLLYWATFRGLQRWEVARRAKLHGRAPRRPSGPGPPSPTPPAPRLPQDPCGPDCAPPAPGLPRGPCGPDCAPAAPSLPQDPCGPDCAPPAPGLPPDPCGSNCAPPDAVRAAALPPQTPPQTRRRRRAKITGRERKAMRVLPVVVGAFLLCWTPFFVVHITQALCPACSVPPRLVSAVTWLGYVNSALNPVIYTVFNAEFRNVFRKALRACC
The test can be described thus: DRUGMATRIX: Dopamine D4.2 radioligand binding (ligand: [3H] Spiperone). The settings on record: cho-k1; Not Active = under 50% inhibition at 10 µM. It counts as cell membranes, CHO-K1, Membrane.
For the compound `CCc1ccc(C(=O)C(C)CN2CCCCC2)cc1` (stereo not given) [EPERISONE], the IC50 result was “Not Active”.
For the compound `C/C=C1\[C@H]2C=C(C)C[C@]1(N)c1ccc(=O)[nH]c1C2` [HUPERZINE A], the half-inhibitory concentration (IC50) result was “Not Active”.

Test system in the next test: not listed separately
The test can be described thus: DRUGMATRIX: Leukotriene, BLT (LTB4) radioligand binding (ligand: [3H]LTB4). In kind it is cell membranes, Membrane. As to conditions: u-937; Not Active = under 50% inhibition at 10 µM.
For the compound `CCc1ccc(C(=O)C(C)CN2CCCCC2)cc1` (stereo not given) [EPERISONE], the concentration for half-maximal inhibition (IC50) entry is reported as “Not Active” and the inhibition constant (Ki) result is listed as “Not Active”.
As for `C/C=C1\[C@H]2C=C(C)C[C@]1(N)c1ccc(=O)[nH]c1C2` [HUPERZINE A], the IC50 result is listed as “Not Active” and the Ki result is listed as “Not Active”.

Another test concerns the target T3, Cysteinyl leukotriene receptor 1 (Homo sapiens, UniProt Q9Y271). Further: in other assays of this panel Not Active means under 50% inhibition at 10 µM.
T3 sequence (Q9Y271 whole entry): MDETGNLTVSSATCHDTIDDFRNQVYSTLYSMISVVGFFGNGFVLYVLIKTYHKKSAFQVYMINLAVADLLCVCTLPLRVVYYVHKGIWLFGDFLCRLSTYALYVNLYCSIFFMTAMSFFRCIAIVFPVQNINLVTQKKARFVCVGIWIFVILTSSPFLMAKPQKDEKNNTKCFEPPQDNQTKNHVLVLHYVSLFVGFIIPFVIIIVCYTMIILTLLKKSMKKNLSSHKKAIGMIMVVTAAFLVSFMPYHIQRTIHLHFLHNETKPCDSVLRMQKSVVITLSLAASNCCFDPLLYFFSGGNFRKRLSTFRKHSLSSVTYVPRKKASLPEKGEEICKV
Test: not given
The settings on record: cho-k1. It counts as cell membranes, CHO-K1, Membrane.
Consider `CCc1ccc(C(=O)C(C)CN2CCCCC2)cc1` (stereo not given) [EPERISONE], for which the IC50 entry is on record as “Not Active”.
`C/C=C1\[C@H]2C=C(C)C[C@]1(N)c1ccc(=O)[nH]c1C2` [HUPERZINE A]: the half-inhibitory concentration (IC50) result is “Not Active”.

In a further test the target is Melanocortin receptor 4 (Homo sapiens, UniProt P32245). Further: in other assays of this panel Not Active means under 50% inhibition at 10 µM.
Chain of Melanocortin receptor 4 (P32245 whole entry): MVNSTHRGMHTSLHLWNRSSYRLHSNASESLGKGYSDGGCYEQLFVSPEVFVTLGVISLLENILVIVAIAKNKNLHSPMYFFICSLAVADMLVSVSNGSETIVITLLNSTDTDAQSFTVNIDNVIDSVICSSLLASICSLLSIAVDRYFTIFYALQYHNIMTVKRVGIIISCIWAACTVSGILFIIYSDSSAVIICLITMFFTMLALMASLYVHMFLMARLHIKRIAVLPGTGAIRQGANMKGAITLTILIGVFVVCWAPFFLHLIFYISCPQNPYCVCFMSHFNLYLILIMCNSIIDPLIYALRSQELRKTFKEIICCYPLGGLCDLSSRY
Test: not given
In kind it is cell membranes, Membrane. The settings on record: hek293.
As for `CCc1ccc(C(=O)C(C)CN2CCCCC2)cc1` (stereo not given) [EPERISONE], the half-inhibitory concentration (IC50) result was “Not Active”.
On the same count and under the same terms, to `C/C=C1\[C@H]2C=C(C)C[C@]1(N)c1ccc(=O)[nH]c1C2` [HUPERZINE A] belongs “Not Active”.

Another test deals with Melanocortin receptor 5 (Homo sapiens, UniProt P33032).
Chain of Melanocortin receptor 5 (P33032 whole entry): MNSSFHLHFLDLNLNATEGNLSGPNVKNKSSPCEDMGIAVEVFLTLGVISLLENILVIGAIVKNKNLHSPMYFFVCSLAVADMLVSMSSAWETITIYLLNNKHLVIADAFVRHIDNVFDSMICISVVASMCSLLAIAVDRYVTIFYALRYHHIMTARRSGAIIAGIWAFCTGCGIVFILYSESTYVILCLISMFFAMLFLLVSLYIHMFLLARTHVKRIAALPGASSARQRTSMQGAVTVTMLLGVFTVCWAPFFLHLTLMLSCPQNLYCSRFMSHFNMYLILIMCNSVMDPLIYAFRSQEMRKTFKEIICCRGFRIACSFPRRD
Test: not given
It counts as cell membranes, HEK293, Membrane. As to conditions: hek293.
For the compound `CCc1ccc(C(=O)C(C)CN2CCCCC2)cc1` (stereo not given) [EPERISONE], the half-maximal inhibitory concentration (IC50) result was “Not Active”.
`C/C=C1\[C@H]2C=C(C)C[C@]1(N)c1ccc(=O)[nH]c1C2` [HUPERZINE A]: the concentration for half-maximal inhibition (IC50) entry is “Not Active”.

A further test addresses Mu-type opioid receptor (Homo sapiens, UniProt P35372). The test can be described thus: DRUGMATRIX: Opiate mu (OP3, MOP) radioligand binding (ligand: [3H] Diprenorphine). It counts as cell membranes, CHO-K1, Membrane. As to conditions: cho-k1; Not Active = under 50% inhibition at 10 µM.
With `CCc1ccc(C(=O)C(C)CN2CCCCC2)cc1` (stereo not given) [EPERISONE], the IC50 entry is on record as “Not Active”.
For `C/C=C1\[C@H]2C=C(C)C[C@]1(N)c1ccc(=O)[nH]c1C2` [HUPERZINE A], the IC50 result is “Not Active”.

The target in a further test is T4, Caspase-1 (Homo sapiens, UniProt P29466).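 Further: Caspase-1 enzyme inhibition assay with a peptide substrate; in other assays of this panel Not Active means under 50% inhibition at 10 µM.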
T4 sequence (P29466 whole entry): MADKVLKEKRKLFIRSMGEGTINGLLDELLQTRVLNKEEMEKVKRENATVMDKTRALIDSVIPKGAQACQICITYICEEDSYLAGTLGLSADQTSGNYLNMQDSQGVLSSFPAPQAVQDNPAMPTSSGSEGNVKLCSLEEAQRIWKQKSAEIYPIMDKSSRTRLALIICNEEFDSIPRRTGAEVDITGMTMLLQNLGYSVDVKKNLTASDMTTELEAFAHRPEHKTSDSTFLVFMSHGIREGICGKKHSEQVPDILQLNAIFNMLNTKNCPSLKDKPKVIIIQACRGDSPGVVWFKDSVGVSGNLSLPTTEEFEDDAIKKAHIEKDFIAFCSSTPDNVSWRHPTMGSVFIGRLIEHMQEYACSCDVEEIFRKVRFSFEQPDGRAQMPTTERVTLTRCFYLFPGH
Test: not given
Also noted: species or system Escherichia coli.
Conditions: not given
`CCc1ccc(C(=O)C(C)CN2CCCCC2)cc1` (stereo not given) [EPERISONE]: the IC50 result is “Not Active”.
For the compound `C/C=C1\[C@H]2C=C(C)C[C@]1(N)c1ccc(=O)[nH]c1C2` [HUPERZINE A], the IC50 result is listed as “Not Active”.

A further test addresses T5, Cathepsin G (Homo sapiens, UniProt P08311).
T5 sequence (P08311 whole entry): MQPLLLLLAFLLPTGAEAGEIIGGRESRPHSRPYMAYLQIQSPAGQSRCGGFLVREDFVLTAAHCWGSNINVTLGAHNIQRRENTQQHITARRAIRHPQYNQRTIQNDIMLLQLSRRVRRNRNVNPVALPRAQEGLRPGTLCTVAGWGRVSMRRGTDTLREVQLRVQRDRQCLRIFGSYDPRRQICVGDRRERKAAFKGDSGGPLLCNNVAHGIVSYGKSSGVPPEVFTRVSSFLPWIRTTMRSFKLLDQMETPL
Test: not given
It counts as tissue-based. As to conditions: neutrophil.
On to `CCc1ccc(C(=O)C(C)CN2CCCCC2)cc1` (stereo not given) [EPERISONE], for which the IC50 result is “Not Active”.
The same measure, in the same setting: to `C/C=C1\[C@H]2C=C(C)C[C@]1(N)c1ccc(=O)[nH]c1C2` [HUPERZINE A] belongs “Not Active”.

The target in a further test is Epidermal growth factor receptor (Homo sapiens, UniProt P00533). Nature of the test: DRUGMATRIX: Protein Tyrosine Kinase, EGF Receptor enzyme inhibition (substrate: Poly(Glu:Tyr)). It counts as cell-based, Insect cells. As to conditions: insect cells; Not Active = under 50% inhibition at 10 µM.
Chain of Epidermal growth factor receptor (P00533 whole entry): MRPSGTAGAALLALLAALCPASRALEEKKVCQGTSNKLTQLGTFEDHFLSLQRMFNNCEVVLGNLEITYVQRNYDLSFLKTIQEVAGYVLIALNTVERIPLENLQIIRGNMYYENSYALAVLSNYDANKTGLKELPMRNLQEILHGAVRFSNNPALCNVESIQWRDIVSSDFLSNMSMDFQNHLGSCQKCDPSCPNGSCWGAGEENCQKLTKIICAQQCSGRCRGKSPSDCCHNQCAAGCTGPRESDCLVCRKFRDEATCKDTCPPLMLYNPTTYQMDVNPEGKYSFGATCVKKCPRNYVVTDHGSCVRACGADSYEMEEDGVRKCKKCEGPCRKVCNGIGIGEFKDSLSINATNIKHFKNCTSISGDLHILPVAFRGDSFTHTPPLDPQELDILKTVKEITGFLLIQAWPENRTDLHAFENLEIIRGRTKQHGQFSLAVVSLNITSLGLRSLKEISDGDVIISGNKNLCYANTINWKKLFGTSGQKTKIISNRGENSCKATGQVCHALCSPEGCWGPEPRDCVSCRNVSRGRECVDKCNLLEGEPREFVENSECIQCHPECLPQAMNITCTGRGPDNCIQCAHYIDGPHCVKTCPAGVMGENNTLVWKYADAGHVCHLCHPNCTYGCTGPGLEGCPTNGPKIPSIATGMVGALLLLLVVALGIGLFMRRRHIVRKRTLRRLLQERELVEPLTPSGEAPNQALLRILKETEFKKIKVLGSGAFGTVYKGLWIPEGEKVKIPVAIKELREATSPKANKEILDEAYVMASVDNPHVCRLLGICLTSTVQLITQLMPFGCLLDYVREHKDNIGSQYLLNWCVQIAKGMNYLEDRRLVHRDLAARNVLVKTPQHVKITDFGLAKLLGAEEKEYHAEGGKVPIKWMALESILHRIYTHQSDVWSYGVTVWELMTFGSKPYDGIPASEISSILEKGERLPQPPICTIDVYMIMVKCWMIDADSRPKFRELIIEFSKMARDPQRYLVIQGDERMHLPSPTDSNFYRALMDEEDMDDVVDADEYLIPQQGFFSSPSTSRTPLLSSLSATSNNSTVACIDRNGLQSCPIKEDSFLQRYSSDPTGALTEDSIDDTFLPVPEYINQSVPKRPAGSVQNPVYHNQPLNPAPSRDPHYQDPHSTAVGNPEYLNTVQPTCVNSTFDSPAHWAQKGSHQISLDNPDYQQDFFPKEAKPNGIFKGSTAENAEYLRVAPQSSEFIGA
In the case of `CCc1ccc(C(=O)C(C)CN2CCCCC2)cc1` (stereo not given) [EPERISONE], the IC50 result was “Not Active”.
In the case of `C/C=C1\[C@H]2C=C(C)C[C@]1(N)c1ccc(=O)[nH]c1C2` [HUPERZINE A], the concentration for half-maximal inhibition (IC50) entry is given as “Not Active”.

For the next test, the target named is Tyrosine-protein kinase Fyn (Homo sapiens, UniProt P06241). Nature of the test: biochemical. It counts as cell-based, Insect cells. The settings on record: insect cells.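 Further: enzymatic inhibition of Fyn kinase activity measured with Poly(Glu:Tyr) as the phosphorylation substrate; in other assays of this panel Not Active means under 50% inhibition at 10 µM.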
Chain of Tyrosine-protein kinase Fyn (P06241 whole entry): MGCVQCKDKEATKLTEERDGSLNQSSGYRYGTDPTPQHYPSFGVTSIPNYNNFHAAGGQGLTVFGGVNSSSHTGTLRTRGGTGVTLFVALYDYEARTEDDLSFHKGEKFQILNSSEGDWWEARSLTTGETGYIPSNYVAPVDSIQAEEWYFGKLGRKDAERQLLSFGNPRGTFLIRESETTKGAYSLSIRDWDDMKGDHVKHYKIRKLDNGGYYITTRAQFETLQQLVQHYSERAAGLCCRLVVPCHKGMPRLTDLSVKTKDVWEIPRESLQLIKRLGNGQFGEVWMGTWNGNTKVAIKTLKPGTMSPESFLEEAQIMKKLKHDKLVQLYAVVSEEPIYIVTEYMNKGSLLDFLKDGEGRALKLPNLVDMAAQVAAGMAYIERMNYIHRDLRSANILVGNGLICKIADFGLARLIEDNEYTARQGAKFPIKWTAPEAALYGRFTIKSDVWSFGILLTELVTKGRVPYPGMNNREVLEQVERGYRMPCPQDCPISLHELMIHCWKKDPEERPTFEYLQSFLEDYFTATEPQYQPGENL
Consider `CCc1ccc(C(=O)C(C)CN2CCCCC2)cc1` (stereo not given) [EPERISONE], for which the IC50 result was “Not Active”.
For the compound `C/C=C1\[C@H]2C=C(C)C[C@]1(N)c1ccc(=O)[nH]c1C2` [HUPERZINE A], the IC50 result is reported as “Not Active”.

Test system in a further test: not listed separately
Nature of the test: DRUGMATRIX: Purinergic P2X radioligand binding (ligand: [3H] alpha, beta-Methylene-ATP). It counts as cell membranes, Oryctolagus cuniculus, New Zealand albino, Urinary bladder, Membrane. As to conditions: Not Active = under 50% inhibition at 10 µM.
`CCc1ccc(C(=O)C(C)CN2CCCCC2)cc1` (stereo not given) [EPERISONE]: the concentration for half-maximal inhibition (IC50) result is reported as “Not Active” and the inhibition constant (Ki) entry is “Not Active”.
As for `C/C=C1\[C@H]2C=C(C)C[C@]1(N)c1ccc(=O)[nH]c1C2` [HUPERZINE A], the IC50 result was “Not Active” and the inhibition constant Ki result is on record as “Not Active”.

A further test deals with 5-hydroxytryptamine receptor 1B (Rattus norvegicus, UniProt P28564).
Chain of 5-hydroxytryptamine receptor 1B (P28564 whole entry): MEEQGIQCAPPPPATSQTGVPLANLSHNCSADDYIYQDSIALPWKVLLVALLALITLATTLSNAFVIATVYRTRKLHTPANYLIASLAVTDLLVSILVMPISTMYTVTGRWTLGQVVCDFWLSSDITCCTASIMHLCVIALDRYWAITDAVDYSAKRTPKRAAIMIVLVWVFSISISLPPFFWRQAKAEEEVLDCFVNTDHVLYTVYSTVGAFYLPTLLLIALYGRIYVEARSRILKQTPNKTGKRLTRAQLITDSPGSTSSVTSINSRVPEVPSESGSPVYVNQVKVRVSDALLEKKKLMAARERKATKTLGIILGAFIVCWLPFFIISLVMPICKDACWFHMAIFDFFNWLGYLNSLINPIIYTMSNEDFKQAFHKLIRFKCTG
Test: not given
It counts as cell membranes, Wistar, Cerebral cortex, Membrane.
Conditions: not given
Turning to `CCc1ccc(C(=O)C(C)CN2CCCCC2)cc1` (stereo not given) [EPERISONE], the IC50 result is listed as “Not Active”.
Regarding `C/C=C1\[C@H]2C=C(C)C[C@]1(N)c1ccc(=O)[nH]c1C2` [HUPERZINE A], the IC50 result is on record as “Not Active”.
